This note sets out measurements from ChEMBL document CHEMBL4425190, “Rat intestinal sucrase inhibited by minor constituents from the leaves and twigs of Archidendron clypearia (Jack.) Nielsen” (Bioorg Med Chem Lett, 2016).

Assay [1] concerns the target Sucrase-isomaltase, intestinal (Rattus norvegicus) (UniProt P23739). The assay can be described thus: Inhibition of rat small intestinal sucrase using sucrose as substrate assessed as amount of liberated glucose at 1 mM after 30 mins by glucose oxidase method.
For assay [2] the target is unchanged. The following applies: 0.02 mM.
Description: Inhibition of rat small intestinal sucrase using sucrose as substrate assessed as amount of liberated glucose at 0.02 mM after 30 mins by glucose oxidase method

Chain of Sucrase-isomaltase, intestinal (Rattus norvegicus) (P23739 1-1013 limits assumed): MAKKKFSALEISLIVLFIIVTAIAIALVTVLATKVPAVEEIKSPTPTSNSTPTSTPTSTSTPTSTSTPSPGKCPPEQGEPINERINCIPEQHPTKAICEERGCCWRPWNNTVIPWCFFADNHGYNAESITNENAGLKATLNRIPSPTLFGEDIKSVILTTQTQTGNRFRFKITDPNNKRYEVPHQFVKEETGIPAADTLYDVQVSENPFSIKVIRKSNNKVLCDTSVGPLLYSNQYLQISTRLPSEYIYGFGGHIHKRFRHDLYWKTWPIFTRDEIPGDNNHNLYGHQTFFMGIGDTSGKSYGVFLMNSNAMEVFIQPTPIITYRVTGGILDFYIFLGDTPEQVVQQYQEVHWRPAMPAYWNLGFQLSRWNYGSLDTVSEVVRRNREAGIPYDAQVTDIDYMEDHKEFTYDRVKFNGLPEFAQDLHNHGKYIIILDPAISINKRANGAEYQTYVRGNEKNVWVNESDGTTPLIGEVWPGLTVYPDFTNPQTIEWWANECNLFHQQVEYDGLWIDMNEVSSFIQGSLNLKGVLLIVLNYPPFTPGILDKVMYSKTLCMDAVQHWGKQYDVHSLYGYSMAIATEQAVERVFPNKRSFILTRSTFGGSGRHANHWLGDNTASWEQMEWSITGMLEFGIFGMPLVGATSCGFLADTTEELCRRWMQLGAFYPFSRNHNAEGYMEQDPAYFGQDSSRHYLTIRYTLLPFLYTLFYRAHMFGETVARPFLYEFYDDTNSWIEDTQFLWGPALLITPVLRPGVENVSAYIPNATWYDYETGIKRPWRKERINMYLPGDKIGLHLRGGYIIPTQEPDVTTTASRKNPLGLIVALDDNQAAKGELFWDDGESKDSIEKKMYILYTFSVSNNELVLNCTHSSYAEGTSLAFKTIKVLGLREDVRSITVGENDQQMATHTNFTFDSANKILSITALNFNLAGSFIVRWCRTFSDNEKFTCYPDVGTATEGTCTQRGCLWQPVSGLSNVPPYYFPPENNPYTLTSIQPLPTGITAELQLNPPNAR
Chain of Sucrase-isomaltase, intestinal (Rattus norvegicus) (P23739 1014-1841 limits assumed): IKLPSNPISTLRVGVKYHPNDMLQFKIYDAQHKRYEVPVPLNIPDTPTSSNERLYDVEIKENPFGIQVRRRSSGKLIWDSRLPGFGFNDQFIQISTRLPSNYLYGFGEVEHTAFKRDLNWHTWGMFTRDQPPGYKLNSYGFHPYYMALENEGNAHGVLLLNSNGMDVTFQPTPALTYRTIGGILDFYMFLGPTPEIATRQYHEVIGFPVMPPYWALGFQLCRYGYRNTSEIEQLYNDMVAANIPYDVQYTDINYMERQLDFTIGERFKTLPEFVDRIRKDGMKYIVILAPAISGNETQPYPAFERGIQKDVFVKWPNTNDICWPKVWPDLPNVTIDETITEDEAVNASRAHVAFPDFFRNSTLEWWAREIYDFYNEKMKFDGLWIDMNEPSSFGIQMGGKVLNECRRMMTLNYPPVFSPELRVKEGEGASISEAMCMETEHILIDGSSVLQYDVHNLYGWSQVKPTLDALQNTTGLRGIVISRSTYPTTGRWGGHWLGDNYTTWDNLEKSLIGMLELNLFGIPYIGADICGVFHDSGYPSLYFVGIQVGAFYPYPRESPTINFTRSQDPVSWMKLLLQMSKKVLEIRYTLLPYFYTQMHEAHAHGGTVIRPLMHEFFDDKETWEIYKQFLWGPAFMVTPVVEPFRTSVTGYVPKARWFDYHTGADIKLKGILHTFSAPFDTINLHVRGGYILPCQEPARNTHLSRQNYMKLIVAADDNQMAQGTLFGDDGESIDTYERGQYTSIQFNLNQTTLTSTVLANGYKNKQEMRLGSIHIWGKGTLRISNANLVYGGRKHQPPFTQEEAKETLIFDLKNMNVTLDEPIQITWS

With `CC(=O)OC[C@H]1O[C@@H](O[C@H](C)/C=C/[C@@]2(O)C(C)=CC(=O)CC2(C)C)[C@H](O)[C@@H](O)[C@@H]1O`, the inhibition in assay [1] was found to be 29.8%.
The same measure, in the same setting: the result for `COc1cc(/C=C/CO)cc(OC)c1O[C@H]1O[C@H](CO)[C@@H](O)[C@H](O)[C@H]1O` reads 14.6%; that for `N#C[C@H](O[C@@H]1O[C@H](CO[C@@H]2O[C@H](CO)[C@@H](O)[C@H](O)[C@H]2O)[C@@H](O)[C@H](O)[C@H]1O)c1ccccc1`, 50.4%; that for `COc1cc([C@H]2c3c(cc(OC)c(O)c3OC)C[C@H](CO)[C@H]2CO)cc(OC)c1O`, 57.5%.
The same measure, in the same setting: the result for `CC1=CC(=O)CC(C)(C)[C@@]1(O)/C=C/[C@@H](C)O[C@@H]1O[C@H](CO)[C@@H](O)[C@H](O)[C@H]1O` reads 23.7%.
On the same count and under the same terms, the result for `COc1cc([C@H]2OC[C@H]3[C@@H]2CO[C@@H]3c2ccc(O)c(OC)c2)ccc1O` reads 51.3%; that for `COc1cc([C@@H]2c3c(cc(OC)c(O)c3OC)C[C@H](CO)[C@H]2CO[C@@H]2O[C@H](CO)[C@@H](O)[C@H](O)[C@H]2O)cc(OC)c1O`, 66.3%; that for `C[C@](O)(CC(=O)O)CC(=O)O[C@@H]1[C@@H](O)[C@H](OCc2ccccc2)O[C@H](CO)[C@H]1O`, 88.4%.
Consider `COc1cc([C@H]2c3c(cc(OC)c(O)c3OC)C[C@H](CO)[C@H]2CO[C@@H]2O[C@H](CO)[C@@H](O)[C@H](O)[C@H]2O)cc(OC)c1O`, for which, in assay [1], the inhibition was 10.8%.
Still for that read-out and setting: the result for `CC1=CC(=O)CC(C)(C)C1/C=C/[C@@H](C)O[C@@H]1O[C@H](CO[C@@H]2OC[C@](O)(CO)[C@H]2O)[C@@H](O)[C@H](O)[C@H]1O` (stereo not given in full) reads 13.6%.
For `C[C@H]1O[C@H](O[C@H]2[C@H](O)[C@@H](O)[C@@H](O[C@H]3[C@H](O)[C@@H](O)C(O)O[C@@H]3CO)O[C@@H]2CO)[C@H](O)[C@@H](O)[C@@H]1N[C@H]1C=C(CO)[C@@H](O)[C@H](O)[C@H]1O` (stereo not given in full), in assay [2], the inhibition turned out to be 89.5%.
For the molecule `COc1cc(/C=C/CO)ccc1O[C@@H]1O[C@H](CO)[C@@H](O)[C@H](O)[C@H]1O`, the inhibition in assay [1] is 11%.
Still for that read-out and setting: the result for `COc1cc(/C=C/CO)cc(O[C@@H]2O[C@H](CO)[C@@H](O)[C@H](O)[C@H]2O[C@@H]2OC[C@](O)(CO)[C@H]2O)c1OC` reads 31.3%; that for `CC1=CC(=O)CC(C)(C)[C@@]1(O)/C=C/[C@@H](C)O[C@@H]1O[C@H](CO[C@@H]2OC[C@](O)(CO)[C@H]2O)[C@@H](O)[C@H](O)[C@H]1O`, 35.1%; that for `COc1cc(C[C@H]2CO[C@H](c3cc(OC)c(O)c(OC)c3)[C@H]2CO[C@@H]2O[C@H](CO)[C@@H](O)[C@H](O)[C@H]2O)cc(OC)c1O`, 81.6%.

In general, inhibition refers to the percentage by which the read-out fell short of the control.
